Drawing on ChEMBL document CHEMBL3826881, “Evaluation of bisbenzamidines as inhibitors for matriptase-2” (Bioorg Med Chem Lett, 2016), this text covers Activity and Ki for 27 compounds.

By Ki is commonly meant a dissociation constant, usually derived from enzyme kinetics or from competition with a known ligand.

Test [1] addresses T1, Transmembrane protease serine 6 (Homo sapiens) (UniProt Q8IU80).
T1 sequence (whole entry): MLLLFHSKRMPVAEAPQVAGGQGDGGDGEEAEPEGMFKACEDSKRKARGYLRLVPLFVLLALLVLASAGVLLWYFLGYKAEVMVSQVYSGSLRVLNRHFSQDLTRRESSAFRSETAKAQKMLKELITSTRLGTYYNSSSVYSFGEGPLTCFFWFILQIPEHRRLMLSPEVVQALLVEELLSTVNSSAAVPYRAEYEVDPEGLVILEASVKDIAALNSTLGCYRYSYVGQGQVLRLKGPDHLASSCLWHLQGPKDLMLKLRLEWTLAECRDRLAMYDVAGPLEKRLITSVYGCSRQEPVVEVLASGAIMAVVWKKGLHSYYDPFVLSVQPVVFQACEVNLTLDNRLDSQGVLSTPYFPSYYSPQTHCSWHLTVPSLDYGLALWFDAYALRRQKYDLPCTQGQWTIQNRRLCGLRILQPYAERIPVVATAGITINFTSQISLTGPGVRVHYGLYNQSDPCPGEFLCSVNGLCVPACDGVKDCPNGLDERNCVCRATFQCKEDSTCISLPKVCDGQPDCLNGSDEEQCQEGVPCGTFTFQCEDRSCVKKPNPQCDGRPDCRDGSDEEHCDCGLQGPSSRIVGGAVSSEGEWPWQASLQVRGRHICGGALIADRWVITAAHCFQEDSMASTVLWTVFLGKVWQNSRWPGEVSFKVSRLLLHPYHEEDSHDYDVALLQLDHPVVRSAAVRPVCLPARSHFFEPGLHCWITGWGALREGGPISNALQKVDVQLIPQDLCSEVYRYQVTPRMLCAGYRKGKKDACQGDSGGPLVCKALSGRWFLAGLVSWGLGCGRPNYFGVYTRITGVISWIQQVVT
Put plainly: Inhibition of human matriptase-2 transfected in HEK cells assessed as residual activity at 40 uM using Boc-Gln-Ala-Arg-AMC as substrate after 20 mins by fluorimetric analysis. Format: cell-based. Particulars: HEK293.

Test [2] concerns the target T2, Suppressor of tumorigenicity 14 protein (Homo sapiens, UniProt Q9Y5Y6).
T2 sequence (Q9Y5Y6 whole entry): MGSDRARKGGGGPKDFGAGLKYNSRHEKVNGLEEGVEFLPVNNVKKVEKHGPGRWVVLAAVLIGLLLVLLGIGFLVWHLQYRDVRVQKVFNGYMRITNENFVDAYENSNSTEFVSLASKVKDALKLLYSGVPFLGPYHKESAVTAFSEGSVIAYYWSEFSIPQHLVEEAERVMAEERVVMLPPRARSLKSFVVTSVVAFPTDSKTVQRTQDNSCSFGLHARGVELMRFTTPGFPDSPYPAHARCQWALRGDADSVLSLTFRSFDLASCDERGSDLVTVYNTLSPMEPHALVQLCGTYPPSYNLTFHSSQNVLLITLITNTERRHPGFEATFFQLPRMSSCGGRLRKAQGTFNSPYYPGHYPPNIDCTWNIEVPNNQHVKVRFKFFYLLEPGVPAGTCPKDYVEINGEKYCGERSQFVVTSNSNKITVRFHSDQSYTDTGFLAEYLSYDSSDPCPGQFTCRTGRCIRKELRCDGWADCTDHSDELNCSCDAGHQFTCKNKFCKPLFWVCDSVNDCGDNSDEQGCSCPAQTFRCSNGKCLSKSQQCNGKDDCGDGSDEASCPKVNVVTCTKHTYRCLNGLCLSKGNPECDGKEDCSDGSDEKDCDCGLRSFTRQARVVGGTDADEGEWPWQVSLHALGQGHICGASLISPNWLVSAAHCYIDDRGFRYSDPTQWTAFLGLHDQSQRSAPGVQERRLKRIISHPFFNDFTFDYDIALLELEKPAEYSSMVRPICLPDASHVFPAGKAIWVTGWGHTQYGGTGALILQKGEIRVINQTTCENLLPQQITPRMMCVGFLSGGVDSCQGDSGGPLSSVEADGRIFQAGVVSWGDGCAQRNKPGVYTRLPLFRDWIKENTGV
Description: Inhibition of human matriptase using Boc-Gln-Ala-Arg-AMC as substrate after 20 mins by fluorimetric analysis.

Test [3] deals with T3, Transmembrane protease serine 6 (Homo sapiens, UniProt Q8IU80).
T3 sequence (Q8IU80 whole entry): T1 sequence (whole entry)
Description: Inhibition of human matriptase-2 transfected in HEK cells using Boc-Gln-Ala-Arg-AMC as substrate after 20 mins by fluorimetric analysis. In kind it is cell-based, HEK293.

The target in test [4] is Prothrombin (Homo sapiens, UniProt P00734). Description: Inhibition of human thrombin using Cbz-Gly-Gly-Arg-AMC as substrate after 20 mins by fluorimetric analysis.
The target of test [5] is Coagulation factor X (Bos taurus, UniProt P00743). Description: Inhibition of bovine factor 10a using Boc-Ile-Glu-Gly-Arg-AMC as substrate after 20 mins by fluorimetric analysis.
Coagulation factor X, sequence (P00743 41-180 limits assumed): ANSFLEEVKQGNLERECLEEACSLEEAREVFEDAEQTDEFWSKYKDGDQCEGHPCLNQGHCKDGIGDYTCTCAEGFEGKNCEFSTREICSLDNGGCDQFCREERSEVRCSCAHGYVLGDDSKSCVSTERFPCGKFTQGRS
Coagulation factor X, sequence (P00743 234-492 limits assumed): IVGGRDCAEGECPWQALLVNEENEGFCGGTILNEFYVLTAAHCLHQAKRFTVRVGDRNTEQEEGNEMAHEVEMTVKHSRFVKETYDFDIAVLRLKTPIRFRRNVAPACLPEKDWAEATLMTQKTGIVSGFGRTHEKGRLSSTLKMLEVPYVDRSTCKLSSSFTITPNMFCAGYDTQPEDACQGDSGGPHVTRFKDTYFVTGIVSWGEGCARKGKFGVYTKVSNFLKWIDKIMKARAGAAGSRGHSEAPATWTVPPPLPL
Test [6] deals with Trypsin (Homo sapiens, UniProt P07477+P07478+P35030). Put plainly: Inhibition of human trypsin using Boc-Gln-Ala-Arg-AMC as substrate after 20 mins by fluorimetric analysis. Format: protein assay.
The target of test [7] is T1, Transmembrane protease serine 6 (Homo sapiens). Put plainly: Inhibition of human matriptase-2 transfected in HEK cells assessed as residual activity at 5 uM using Boc-Gln-Ala-Arg-AMC as substrate after 20 mins by fluorimetric analysis. In kind it is cell-based. As to conditions: HEK293.
The nature of test [8]: Inhibition of bovine trypsin after 15 to 30 mins. More on the design: species or system Bos taurus.

For `N=C(N)c1ccc(NCCCCCCCNc2ccc(C(=N)N)cc2)cc1`, the Activity in test [1] stood at 16%. Besides, the Ki turned out to be 0.558 µM in test [2]; 3.68 µM in test [3]; 0.499 µM in test [4]; 0.391 µM in test [5]; 0.244 µM in test [6].
On to `N=C(N)c1ccc(NC(=O)CCCC(=O)Nc2ccc(C(=N)N)cc2)cc1`, for which the Activity in test [1] came to 68%.
As for `N=C(N)c1ccc(NCCCCNc2ccc(C(=N)N)cc2)cc1`, in test [1], the Activity was determined as 27%.
In the case of `N=C(N)c1ccc(OCc2cccc(COc3ccc(C(=N)N)cc3)c2)cc1`, the Activity in test [1] was 17%.
On to `N=C(N)c1ccc(NCCCCCCCCNc2ccc(C(=N)N)cc2)cc1`, for which the Activity in test [1] turned out to be 8.6%. Besides, the Ki came out at 0.526 µM in test [2]; 1.64 µM in test [3]; 0.317 µM in test [4]; 1.29 µM in test [5]; 0.192 µM in test [6].
For the compound `N=C(N)c1ccc(NCCNc2ccc(C(=N)N)cc2)cc1`, the Activity in test [1] was 23%.
On to `N=C(N)c1ccc(NC(=O)CCC(=O)Nc2ccc(C(=N)N)cc2)cc1`, for which the Activity in test [1] came to 40%.
For the compound `N=C(N)c1ccc(NC(=O)c2ccc(C(=O)Nc3ccc(C(=N)N)cc3)cc2)cc1`, the Activity is above 50% in test [1] and 93% in test [7].
For the compound `N=C(N)c1ccc(NC(=O)c2cccc(C(=O)Nc3ccc(C(=N)N)cc3)c2)cc1`, in test [1], the Activity was determined as 32%.
On the same count and under the same terms, the result for `N=C(N)c1ccc(NCCCCCCNc2ccc(C(=N)N)cc2)cc1` reads 21%; that for `N=C(N)c1ccc(NC(=O)CCCCCCC(=O)Nc2ccc(C(=N)N)cc2)cc1`, 62%; that for `N=C(N)c1ccc(NCCCNc2ccc(C(=N)N)cc2)cc1`, 55%.
Still for that read-out and setting: the result for `N=C(N)c1ccc(NC(=O)CCCCC(=O)Nc2cccc(C(=N)N)c2)cc1` reads 78%; that for `CN(CCCN(C)c1ccc(C(=N)N)cc1)c1ccc(C(=N)N)cc1`, 23%.
As for `N=C(N)c1ccc(NC(=O)C(=O)Nc2ccc(C(=N)N)cc2)cc1`, in test [1], the Activity was 17%. The Ki in test [2] came to 0.492 µM; in test [3] it was 6.23 µM; in test [4], 15.8 µM; in test [5], 52.3 µM; in test [6], 1.42 µM.
On to `N=C(N)c1ccc(OCc2ccccc2COc2ccc(C(=N)N)cc2)cc1`, for which the Activity in test [1] was determined as 19%. Moreover, the inhibitory constant (Ki) was found to be 2.28 µM in test [2]; 5.2 µM in test [3]; 0.279 µM in test [4]; 13.7 µM in test [5]; 0.221 µM in test [6].
For `N=C(NC1CC1)c1ccc(N2CCCN(c3ccc(C(=N)NC4CC4)cc3)CC2)cc1`, the Activity in test [1] was 45%.
On the same count and under the same terms, then `N=C(N)c1ccc(NC(=O)CCCCCCCC(=O)Nc2ccc(C(=N)N)cc2)cc1`, with 49%.
Take `N=C(N)c1ccc(OCc2ccc(COc3ccc(C(=N)N)cc3)cc2)cc1`: in test [1], the Activity stood at 16%. Moreover, the Ki in test [2] came out at 0.816 µM; in test [3], 5.7 µM; in test [4] it was 1.16 µM; in test [5] it was 0.327 µM; in test [6], 0.316 µM; in test [8] it was 1.3 µM.
With `N=C(N)c1ccc(COc2ccccc2OCc2ccc(C(=N)N)cc2)cc1`, the Activity in test [1] stood at 46%.
Same read-out and setting: the result for `N=C(N)c1ccc(NC(=O)CCCCC(=O)Nc2ccc(C(=N)N)cc2)cc1` reads 57%.
In the case of `N=C(N)c1ccc(NC(=O)CCCCCCCCCCC(=O)Nc2ccc(C(=N)N)cc2)cc1`, the Activity in test [1] was determined as 49%.
Same read-out and setting: the result for `N=C(N)c1ccc(NC(=O)CCCCCC(=O)Nc2ccc(C(=N)N)cc2)cc1` reads 63%.
With `N=C(N)c1ccc(N2CCN(c3ccc(C(=N)N)cc3)CC2)cc1`, in test [1], the Activity was 5.3%. The inhibition constant (Ki) was found to be 0.719 µM in test [2]; 1.16 µM in test [3]; 10.1 µM in test [4]; 20 µM in test [5]; 0.513 µM in test [6].
With `N=C(N)c1ccc(N2CCCN(c3ccc(C(=N)N)cc3)CC2)cc1`, in test [1], the Activity is 15%. Moreover, the Ki in test [2] came out at 0.397 µM; in test [3], 4.39 µM; in test [4] it was 5.3 µM; in test [5], 7.83 µM; in test [6] it was 1.9 µM.
Turning to `CN(CCNc1ccc(C(=N)N)cc1)c1ccc(C(=N)N)cc1`, the Activity in test [1] was 21%.
Turning to `N=C(N)c1ccc(NC(=O)CCCCCCCCC(=O)Nc2ccc(C(=N)N)cc2)cc1`, the Activity in test [1] came out at 33%.
